How the values were obtained:
Format in all cases: in vivo
[1] = test system: Thrips tabaci (Onion thrips); experiment: Thrips tabaci (Onion thrips) mortality, sprayed sunflower leaf discs; settings: foliar, 168 h, 200 ppm spray on sunflower leaf discs, mixed ages, mortality after 7 days
[2] = test system: Myzus persicae (Green peach aphid); experiment: Myzus persicae (Green peach aphid) mortality, test compounds mixed with Sucrose solution under Parafilm; settings: 120 h, 12.5 ppm in Sucrose solution, infested pea seedlings on Parafilm, mortality 5 days after infestation
[3] = test system: Plutella xylostella (Diamond back moth); experiment: Plutella xylostella (Diamond back moth) larval mortality, artificial diet in 24-well MTP; settings: 144 h, application rate 200 ppm (concentration in well 18 ppm), L2 larvae, larval mortality after 6 days
[4] = test system: Myzus persicae (Green peach aphid); experiment: Myzus persicae (Green peach aphid) mortality, sprayed sunflower leaf discs; settings: foliar, 144 h, 200 ppm spray on sunflower leaf discs, mixed ages, mortality 6 DAT
[5] = test system: Spodoptera littoralis (Egyptian cotton leafworm); experiment: Spodoptera littoralis (Egyptian cotton leafworm) mortality, sprayed cotton leaf discs; settings: foliar, 72 h, 200 ppm spray on cotton leaf discs, L1 larvae, mortality 3 DAT
[6] = test system: Tetranychus urticae (Two-spotted spider mite); experiment: Tetranychus urticae (Two-spotted spider mite) mortality, sprayed bean leaf discs; settings: foliar, 192 h, 200 ppm spray on bean leaf discs, mixed ages, egg, larval and adult mortality after 8 days
[7] = test system: Diabrotica balteata (Corn root worm); experiment: Diabrotica balteata (Corn root worm) larval mortality, artificial diet in 24-well MTP; settings: 120 h, application rate 200 ppm (concentration in well 18 ppm), L2 larvae, larval mortality after 5 days

COc1c(NC(=O)c2ccc(C#N)cc2)cccc1C(=O)Nc1c(Br)cc(C(F)(C(F)(F)F)C(F)(F)F)cc1OC(F)F [Compound 6]
≥ 80%: pest or weed control at 200 ppm [1] | pest or weed control at 12.5 ppm [2] | pest or weed control at 200 ppm [3] | pest or weed control at 200 ppm [4] | pest or weed control at 200 ppm [5] | pest or weed control at 200 ppm [6] | pest or weed control at 200 ppm [7]

O=C(Nc1cccc(C(=O)Nc2c(Br)cc(C(F)(C(F)(F)F)C(F)(F)F)cc2OC(F)F)c1F)c1ccc(OC(F)(F)F)cc1 [Compound 26]
≥ 80%: pest or weed control at 200 ppm [1] | pest or weed control at 12.5 ppm [2] | pest or weed control at 200 ppm [3] | pest or weed control at 200 ppm [4] | pest or weed control at 200 ppm [5] | pest or weed control at 200 ppm [6] | pest or weed control at 200 ppm [7]

COc1c(NC(=O)c2ccc(F)cc2C)cccc1C(=O)Nc1c(Cl)cc(C(F)(C(F)(F)F)C(F)(F)F)cc1OC(F)F [Compound 84]
≥ 80%: pest or weed control at 200 ppm [1] | pest or weed control at 12.5 ppm [2] | pest or weed control at 200 ppm [3] | pest or weed control at 200 ppm [4] | pest or weed control at 200 ppm [5] | pest or weed control at 200 ppm [6] | pest or weed control at 200 ppm [7]

O=C(Nc1cccc(C(=O)Nc2c(Cl)cc(C(F)(C(F)(F)F)C(F)(F)F)cc2OC(F)F)c1F)c1ccc(F)cc1Cl [Compound 74]
≥ 80%: pest or weed control at 200 ppm [1] | pest or weed control at 12.5 ppm [2] | pest or weed control at 200 ppm [3] | pest or weed control at 200 ppm [5] | pest or weed control at 200 ppm [6] | pest or weed control at 200 ppm [7]

COc1c(NC(=O)c2ccc(F)cc2Cl)cccc1C(=O)Nc1c(Cl)cc(C(F)(C(F)(F)F)C(F)(F)F)cc1OC(F)F [Compound 95]
≥ 80%: pest or weed control at 200 ppm [1] | pest or weed control at 200 ppm [3] | pest or weed control at 200 ppm [4] | pest or weed control at 200 ppm [5] | pest or weed control at 200 ppm [6] | pest or weed control at 200 ppm [7]

COc1c(NC(=O)c2ccccc2C)cccc1C(=O)Nc1c(Br)cc(C(F)(C(F)(F)F)C(F)(F)F)cc1OC(F)F [Compound 35]
≥ 80%: pest or weed control at 200 ppm [1] | pest or weed control at 200 ppm [3] | pest or weed control at 200 ppm [4] | pest or weed control at 200 ppm [5] | pest or weed control at 200 ppm [6] | pest or weed control at 200 ppm [7]

CCN(C(=O)c1ccc([N+](=O)[O-])cc1Cl)c1cccc(C(=O)Nc2c(Cl)cc(C(F)(C(F)(F)F)C(F)(F)F)cc2OC(F)F)c1OC [Compound 152]
≥ 80%: pest or weed control at 200 ppm [1] | pest or weed control at 12.5 ppm [2] | pest or weed control at 200 ppm [3] | pest or weed control at 200 ppm [5] | pest or weed control at 200 ppm [6] | pest or weed control at 200 ppm [7]

O=C(Nc1cccc(C(=O)Nc2c(Cl)cc(C(F)(C(F)(F)F)C(F)(F)F)cc2OC(F)F)c1F)c1ccccc1Cl [Compound 48]
≥ 80%: pest or weed control at 200 ppm [1] | pest or weed control at 200 ppm [3] | pest or weed control at 200 ppm [4] | pest or weed control at 200 ppm [5] | pest or weed control at 200 ppm [6] | pest or weed control at 200 ppm [7]

CCN(C(=O)c1ccccc1F)c1cccc(C(=O)Nc2c(Br)cc(C(F)(C(F)(F)F)C(F)(F)F)cc2OC(F)F)c1OC [Compound 129]
≥ 80%: pest or weed control at 200 ppm [1] | pest or weed control at 200 ppm [3] | pest or weed control at 200 ppm [5] | pest or weed control at 200 ppm [6] | pest or weed control at 200 ppm [7]

COc1c(NC(=O)c2ccccc2C(F)(F)F)cccc1C(=O)Nc1c(Cl)cc(C(F)(C(F)(F)F)C(F)(F)F)cc1OC(F)F [Compound 94]
≥ 80%: pest or weed control at 200 ppm [1] | pest or weed control at 200 ppm [3] | pest or weed control at 200 ppm [4] | pest or weed control at 200 ppm [5] | pest or weed control at 200 ppm [6] | pest or weed control at 200 ppm [7]

CCN(C(=O)c1ccccc1OC)c1cccc(C(=O)Nc2c(Cl)cc(C(F)(C(F)(F)F)C(F)(F)F)cc2OC(F)F)c1OC [Compound 154]
≥ 80%: pest or weed control at 200 ppm [1] | pest or weed control at 200 ppm [3] | pest or weed control at 200 ppm [5] | pest or weed control at 200 ppm [6] | pest or weed control at 200 ppm [7]

COc1c(NC(=O)c2ccccc2C)cccc1C(=O)Nc1c(Cl)cc(C(F)(C(F)(F)F)C(F)(F)F)cc1OC(F)F [Compound 77]
≥ 80%: pest or weed control at 200 ppm [1] | pest or weed control at 200 ppm [3] | pest or weed control at 200 ppm [5] | pest or weed control at 200 ppm [6] | pest or weed control at 200 ppm [7]

COc1c(NC(=O)c2ccc(F)cc2F)cccc1C(=O)Nc1c(Cl)cc(C(F)(C(F)(F)F)C(F)(F)F)cc1OC(F)F [Compound 97]
≥ 80%: pest or weed control at 200 ppm [1] | pest or weed control at 200 ppm [3] | pest or weed control at 200 ppm [4] | pest or weed control at 200 ppm [5] | pest or weed control at 200 ppm [6]

CCN(C(=O)c1ccc(F)cc1C)c1cccc(C(=O)Nc2c(Br)cc(C(F)(C(F)(F)F)C(F)(F)F)cc2OC(F)F)c1OC [Compound 133]
≥ 80%: pest or weed control at 200 ppm [1] | pest or weed control at 200 ppm [3] | pest or weed control at 200 ppm [5] | pest or weed control at 200 ppm [6] | pest or weed control at 200 ppm [7]

CCN(C(=O)c1ccccc1Cl)c1cccc(C(=O)Nc2c(Cl)cc(C(F)(C(F)(F)F)C(F)(F)F)cc2OC(F)F)c1F [Compound 112]
≥ 80%: pest or weed control at 200 ppm [1] | pest or weed control at 200 ppm [3] | pest or weed control at 200 ppm [4] | pest or weed control at 200 ppm [5] | pest or weed control at 200 ppm [6] | pest or weed control at 200 ppm [7]

O=C(Nc1cccc(C(=O)Nc2c(Cl)cc(C(F)(C(F)(F)F)C(F)(F)F)cc2OC(F)F)c1F)c1ccc(F)c(C(F)(F)F)c1 [Compound 62]
≥ 80%: pest or weed control at 12.5 ppm [2] | pest or weed control at 200 ppm [3] | pest or weed control at 200 ppm [5] | pest or weed control at 200 ppm [6] | pest or weed control at 200 ppm [7]

COc1c(NC(=O)c2ccc(OC(F)(F)F)cc2)cccc1C(=O)Nc1c(Cl)cc(C(F)(C(F)(F)F)C(F)(F)F)cc1OC(F)F [Compound 87]
≥ 80%: pest or weed control at 200 ppm [1] | pest or weed control at 200 ppm [3] | pest or weed control at 200 ppm [5] | pest or weed control at 200 ppm [6] | pest or weed control at 200 ppm [7]

CCN(C(=O)c1ccccc1F)c1cccc(C(=O)Nc2c(Cl)cc(C(F)(C(F)(F)F)C(F)(F)F)cc2OC(F)F)c1F [Compound 111]
≥ 80%: pest or weed control at 200 ppm [1] | pest or weed control at 12.5 ppm [2] | pest or weed control at 200 ppm [3] | pest or weed control at 200 ppm [4] | pest or weed control at 200 ppm [5] | pest or weed control at 200 ppm [7]

Cc1ccccc1C(=O)Nc1cccc(C(=O)Nc2c(Cl)cc(C(F)(C(F)(F)F)C(F)(F)F)cc2OC(F)F)c1F [Compound 46]
≥ 80%: pest or weed control at 200 ppm [1] | pest or weed control at 200 ppm [3] | pest or weed control at 200 ppm [5] | pest or weed control at 200 ppm [6] | pest or weed control at 200 ppm [7]

COc1c(NC(=O)c2ccc(F)cc2F)cccc1C(=O)Nc1c(Br)cc(C(F)(C(F)(F)F)C(F)(F)F)cc1OC(F)F [Compound 71]
≥ 80%: pest or weed control at 200 ppm [1] | pest or weed control at 200 ppm [3] | pest or weed control at 200 ppm [4] | pest or weed control at 200 ppm [5] | pest or weed control at 200 ppm [6] | pest or weed control at 200 ppm [7]

COc1c(NC(=O)c2ccccc2OC(F)(F)F)cccc1C(=O)Nc1c(Br)cc(C(F)(C(F)(F)F)C(F)(F)F)cc1OC(F)F [Compound 56]
≥ 80%: pest or weed control at 200 ppm [1] | pest or weed control at 12.5 ppm [2] | pest or weed control at 200 ppm [3] | pest or weed control at 200 ppm [4] | pest or weed control at 200 ppm [5] | pest or weed control at 200 ppm [7]

COc1c(NC(=O)c2ccccc2)cccc1C(=O)Nc1c(Cl)cc(C(F)(C(F)(F)F)C(F)(F)F)cc1OC(F)F [Compound 92]
≥ 80%: pest or weed control at 200 ppm [1] | pest or weed control at 200 ppm [3] | pest or weed control at 200 ppm [4] | pest or weed control at 200 ppm [5] | pest or weed control at 200 ppm [6] | pest or weed control at 200 ppm [7]

COc1c(NC(=O)c2ccc(F)cc2C)cccc1C(=O)Nc1c(Br)cc(C(F)(C(F)(F)F)C(F)(F)F)cc1OC(F)F [Compound 43]
≥ 80%: pest or weed control at 200 ppm [1] | pest or weed control at 200 ppm [3] | pest or weed control at 200 ppm [4] | pest or weed control at 200 ppm [5] | pest or weed control at 200 ppm [6] | pest or weed control at 200 ppm [7]

COc1c(NC(=O)c2ccc(C)cc2)cccc1C(=O)Nc1c(Br)cc(C(F)(C(F)(F)F)C(F)(F)F)cc1OC(F)F [Compound 41]
≥ 80%: pest or weed control at 200 ppm [1] | pest or weed control at 12.5 ppm [2] | pest or weed control at 200 ppm [3] | pest or weed control at 200 ppm [4] | pest or weed control at 200 ppm [5] | pest or weed control at 200 ppm [7]

COc1c(NC(=O)c2ccccc2Cl)cccc1C(=O)Nc1c(Br)cc(C(F)(C(F)(F)F)C(F)(F)F)cc1OC(F)F [Compound 37]
≥ 80%: pest or weed control at 200 ppm [1] | pest or weed control at 200 ppm [3] | pest or weed control at 200 ppm [4] | pest or weed control at 200 ppm [5] | pest or weed control at 200 ppm [6] | pest or weed control at 200 ppm [7]

CCN(C(=O)c1ccccc1F)c1cccc(C(=O)Nc2c(Br)cc(C(F)(C(F)(F)F)C(F)(F)F)cc2OC(F)F)c1F [Compound 125]
≥ 80%: pest or weed control at 200 ppm [1] | pest or weed control at 12.5 ppm [2] | pest or weed control at 200 ppm [3] | pest or weed control at 200 ppm [4] | pest or weed control at 200 ppm [5] | pest or weed control at 200 ppm [7]

COc1c(NC(=O)c2ccccc2Cl)cccc1C(=O)Nc1c(Cl)cc(C(F)(C(F)(F)F)C(F)(F)F)cc1OC(F)F [Compound 79]
≥ 80%: pest or weed control at 200 ppm [1] | pest or weed control at 200 ppm [3] | pest or weed control at 200 ppm [4] | pest or weed control at 200 ppm [5] | pest or weed control at 200 ppm [6] | pest or weed control at 200 ppm [7]

Source: patent US11445724B2, “Insecticidal compounds” (SYNGENTA PARTICIPATIONS AG, priority 2013, dated 2022)
